Measurements as given in patent publication US9409876B2, “Bradykinin receptor antagonists and pharmaceutical compositions containing them” (DOMPE' FARMACEUTICI S.P.A., priority 2013, dated 2016).

Target: T1, BKB1 receptors (Homo sapiens, UniProt P46663)
T1 construct: Human (IMR-90) lung fibroblast cells expressing native BKB1 receptors; endogenous in cells; host or cells: IMR-90 human lung fibroblasts, treated with human IL-1 to up-regulate BKB1
T1 sequence (P46663 1-353): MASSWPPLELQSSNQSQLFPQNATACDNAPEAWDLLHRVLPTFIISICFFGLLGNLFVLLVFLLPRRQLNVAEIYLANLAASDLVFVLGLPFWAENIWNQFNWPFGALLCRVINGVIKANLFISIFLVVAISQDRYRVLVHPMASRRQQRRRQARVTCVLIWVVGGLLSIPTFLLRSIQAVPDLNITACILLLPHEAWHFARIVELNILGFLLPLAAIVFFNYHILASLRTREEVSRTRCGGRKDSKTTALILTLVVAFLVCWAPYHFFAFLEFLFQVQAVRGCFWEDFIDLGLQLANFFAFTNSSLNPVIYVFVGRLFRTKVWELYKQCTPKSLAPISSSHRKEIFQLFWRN
Assay: Calcium Mobilization Assay (FLIPR), IMR-90 cells, BKB1
Assay type: cell-based
Conditions: IL-1 induced IMR-90 cells, agonist desArg10-kallidin (DAKD)
Protocol: Calcium Mobilization Assay (FLIPR)—Human (IMR-90) lung fibroblast cells expressing native BKB1 receptors were harvested by trypsinization and seeded into black wall/clear bottom 96-well plates (Costar 3904; Corning Life Sciences, Acton, Mass.) at approximately 13,000 cells/well. After 1 day incubation, cells were treated with human IL-1 (0.35 ng/ml) in 10% FBS/MEM for 2 h to up-regulate BKB1 receptors. Induced cells were loaded with fluorescent calcium indicator by incubation with 2.3 µM Fluo-4/acetoxymethyl ester (Invitrogen) at 37° C. for 1.5 h in the presence of an anion transport inhibitor (2.5 mM probenecid in 1% FBS/MEM). Extracellular dye was removed by washing with assay buffer (2.5 mM probenecid, 0.1% BSA in 20 mM HEPES/HBSS without bicarbonate or phenol red, pH 7.5) and cell plates were kept in the dark until used. Test compounds were assayed at eight concentrations in triplicate.

Row | Molecule | IC50 [µM]
1 | Cc1ccc(C(C(=O)NCC2CCCO2)N(CC2CCCCC2)C(=O)Cc2cccc(C)c2)cc1 (stereo not drawn) [40 (mix), N-(cyclohexylmethyl)-2-(3-methylphenyl)-N-{1-(4-methylphenyl)-2-oxo-2-[(tetrahydrofuran-2-ylmethyl)amino]ethyl}acetamide] | 5.1
2 | CCC(CC)CN(C(=O)Cc1ccccc1C)C(C(=O)NCC1CCCO1)c1ccc(C)cc1 (stereo not drawn) [41 (mix), N-(2-ethylbutyl)-2-(2-methylphenyl)-N-{1-(4-methylphenyl)-2-oxo-2-[(tetrahydrofuran-2-ylmethyl)amino]ethyl}acetamide] | 4.3
3 | CCC(CC)CN(C(=O)Cc1ccc(F)cc1)C(C(=O)NCC1CCCO1)c1ccc(C)cc1 (stereo not drawn) [42 (mix), N-(2-ethylbutyl)-2-(4-fluorophenyl)-N-{1-(4-methylphenyl)-2-oxo-2-[(tetrahydrofuran-2-ylmethyl)amino]ethyl}acetamide] | 9.6
4 | Cc1ccc(C(C(=O)NCC2CCCO2)N(Cc2cccn2C)C(=O)CN(C)C)cc1 (stereo not drawn) [43 (mix), 2-(dimethylamino)-N-[(1-methyl-1H-pyrrol-2-yl)methyl]-N-{1-(4-methylphenyl)-2-oxo-2-[(tetrahydrofuran-2-ylmethyl)amino]ethyl}acetamide] | 9.5
5 | Cc1ccc(C(C(=O)NCC2CCCO2)N(CC2CCCC2)C(=O)Cc2ccccc2C)cc1 (stereo not drawn) [44 (mix), N-(cyclopentylmethyl)-2-(2-methylphenyl)-N-{1-(4-methylphenyl)-2-oxo-2-[(tetrahydrofuran-2-ylmethyl)amino]ethyl}acetamide] | 12.6
6 | Cc1ccc(C(C(=O)NCC2CCCO2)N(CC2CCCC2)C(=O)Cc2cccc(C)c2)cc1 (stereo not drawn) [45 (mix), N-(cyclopentylmethyl)-2-(3-methylphenyl)-N-{1-(4-methylphenyl)-2-oxo-2-[(tetrahydrofuran-2-ylmethyl)amino]ethyl}acetamide] | 13.1
7 | Cc1ccc(C(C(=O)NCC2CCCO2)N(Cc2cccnc2)C(=O)Cc2ccccc2C)cc1 (stereo not drawn) [46 (mix), 2-(2-methylphenyl)-N-(pyridin-3-ylmethyl)-N-{1-(4-methylphenyl)-2-oxo-2-[(tetrahydrofuran-2-ylmethyl)amino]ethyl}acetamide] | 11.7
8 | Cc1ccc(C(C(=O)NCC2CCCO2)N(CC2CCCC2)C(=O)Cc2ccccc2)cc1 (stereo not drawn) [47 (mix), N-(cyclopentylmethyl)-N-{1-(4-methylphenyl)-2-oxo-2-[(tetrahydrofuran-2-yl)methylamino]ethyl}2-phenylacetamide] | 9.8
9 | Cc1ccc(C(C(=O)NCC2CCCO2)N(CC2CCCCC2)C(=O)CC2CCCC2)cc1 (stereo not drawn) [48 (mix), N-(cyclohexylmethyl)-2-cyclopentyl-N-{1-(4-methylphenyl)-2-oxo-2-[(tetrahydrofuran-2-ylmethyl)amino]ethyl}acetamide] | 15
10 | Cc1ccc(C(C(=O)NCC2CCCO2)N(CC(C)C)C(=O)Cc2c[nH]cn2)cc1 (stereo not drawn) [49 (mix), 2-(1H-imidazol-4-yl)-N-(2-methylpropyl)-N-{1-(4-methylphenyl)-2-oxo-2-[(tetrahydrofuran-2-ylmethyl)amino]ethyl}acetamide] | 14.7
11 | CCC(CC)CN(C(=O)C1CCCCC1)C(C(=O)NCC1CCCO1)c1ccc(C)cc1 (stereo not drawn) [50 (mix), N-(2-ethylbutyl)-N-{1-(4-methylphenyl)-2-oxo-2-[(tetrahydrofuran-2-ylmethyl)amino]ethyl}cyclohexanecarboxamide] | 14.2
12 | Cc1ccc(C(C(=O)NCC2CCCO2)N(CC2CCCC2)C(=O)CC2CCCC2)cc1 (stereo not drawn) [51 (mix), 2-cyclopentyl-N-cyclopentylmethyl-N-{1-(4-methylphenyl)-2-oxo-2-[(tetrahydrofuran-2-ylmethyl)amino]ethyl}acetamide] | 13
13 | COc1ccccc1CN(C(=O)CC(C)C)C(C(=O)NCC1CCCO1)c1ccc(C2CC2)cc1 (stereo not drawn) [52 (mix), N-(2-methoxybenzyl]-N-[1-(4-cyclopropylphenyl)-2-oxo-2-[(tetrahydrofuran-2-yl)methylamino]ethyl)-3-methylbutanamide] | 0.063
14 | COc1ccccc1CN(C(=O)Cn1nnc2ccccc21)C(C(=O)NCC1CCCO1)c1ccc(C(F)(F)F)cc1 (stereo not drawn) [53 (mix), 2-(1H-benzotriazol-1-yl)-N-(2-methoxybenzyl)-N-{1-(4-trifluoromethylphenyl)-2-oxo-2-[(tetrahydrofuran-2-ylmethyl)amino]ethyl}acetamide] | 0.297
15 | COc1ccccc1CN(C(=O)CC(C)C)C(C(=O)NCC1CCCO1)c1ccc(C(F)(F)F)cc1 (stereo not drawn) [54 (mix)] | 0.528
16 | COc1ccccc1CN(C(=O)Cn1nnc2ccccc21)[C@@H](C(=O)NC[C@H]1CCCO1)c1ccc(C)cc1 [Compound 1 (R,R), 2-(1H-benzotriazol-1-yl)-N-(2-methoxybenzyl)-N-{[(1R)-1-(4-methylphenyl)]-2-oxo-2-[(2R)-(tetrahydrofuran-2-ylmethyl)amino]ethyl}acetamide] | 0.043
17 | COc1ccccc1CN(C(=O)c1coc(C)n1)[C@@H](C(=O)NC[C@H]1CCCO1)c1ccc(C)cc1 [Compound 2 (R,R)] | 0.063
18 | COc1ccccc1CN(C(=O)Cc1cccc(F)c1F)[C@@H](C(=O)NC[C@H]1CCCO1)c1ccc(C)cc1 [Compound 3 (R,R), 2-(2,3-difluorophenyl)-N-(2-methoxybenzyl)-N-{(1R)-1-(4-methylphenyl)-2-oxo-2-[(2R)-(tetrahydrofuran-2-ylmethyl)amino]ethyl}acetamide] | 0.54
19 | COc1ccccc1CN(C(=O)c1ccco1)[C@@H](C(=O)NC[C@H]1CCCO1)c1ccc(C)cc1 [Compound 4 (R,R), N-(2-methoxybenzyl)-N-[(1R)-1-(4-methylphenyl)-2-oxo-2-{[(2R)tetrahydrofuran-2-ylmethyl]amino}ethyl]furan-2-carboxamide] | 0.358
20 | COc1ccccc1CN(C(=O)Cc1c(F)cccc1F)[C@@H](C(=O)NC[C@H]1CCCO1)c1ccc(C)cc1 [Compound 6 (R,R), 2-(2,6-difluorophenyl)-N-(2-methoxybenzyl)-N-{(1R)-1-(4-methylphenyl)-2-oxo-2-[(2R)-(tetrahydrofuran-2-ylmethyl)amino]ethyl}acetamide] | 0.456
21 | COc1ccccc1CN(C(=O)Cc1ccccc1)[C@@H](C(=O)NC[C@H]1CCCO1)c1ccc(C)cc1 [Compound 7 (R,R), N-(2-methoxybenzyl)-N-{(1R)-1-(4-methylphenyl)-2-oxo-2-[(2R)-(tetrahydrofuran-2-ylmethyl)amino]ethyl}-2-phenylacetamide] | 0.2
22 | COc1ccccc1CN(C(=O)Cn1ccnn1)[C@@H](C(=O)NC[C@H]1CCCO1)c1ccc(C)cc1 [Compound 30 (R,R), N-(2-methoxybenzyl)-N-{(1R)-1-(4-methylphenyl)-2-oxo-2-[(2R)-(tetrahydrofuran-2-ylmethyl)amino]ethyl}-2-(1H-1,2,3-triazol-1-yl)acetamide] | 0.011
23 | N-(2-methoxybenzyl)-N-{(1R)-1-(4-methylphenyl)-2-oxo-2-[(2R)-(pyrrolidin-2-ylmethyl)amino]ethyl}-2-(1H-1,2,3-triazol-1-yl)acetate [Compound 55 (R,R)] | 0.0757
24 | N-(2-methoxybenzyl)-N-{(1S)-1-(4-methylphenyl)-2-oxo-2-[(2R)-(pyrrolidin-2-ylmethyl)amino]ethyl}-2-(1H-1,2,3-triazol-1-yl)acetate [55 (S,R)] | 0.12
